In patent US7705045B2, “Prodrugs built as multiple self-elimination-release spacers” (Syntarga, B.V., priority 2003, dated 2010):
In brackets after ≈: the same amount, converted by molar mass. Entries after “also recorded” stand apart in the source; their conditions may differ.

Columns and labels:
[1] = Stability of reference compounds on treatment with zinc and acetic acid; type: physicochemical; settings: zinc powder, MeOH/THF/AcOH, Rt, 16 h
Protocol: (§1) Stability of 35. Treatment of 35 with Zinc (see FIG. 28). Dibenzyl carbonate 35 (13 mg) was dissolved in 2.5 mL MeOH/THF/AcOH (1.5/0.5/0.5). Zinc powder was added and the reaction mixture was stirred at Rt for 16 h. […] The mixture was filtered over hyflo and the residue was washed with MeOH/dichloromethane.
as §1, with “36.” for “35.”, “36” for “35”, “Paclitaxel-2′-carbonate 36 (3” for “Dibenzyl carbonate 35 (13”, “MeOH/dichloromethane. The filtrate was concentrated in vacuo.” for “MeOH/dichloromethane.”

[2] = system: MCF-7; breast cancer; assay: SRB anti-proliferative test, MCF-7; type: cell-based, human; settings: 5 days of incubation
Protocol: (§2) Cytoxicity of multiple release spacers 16 and 23. The anti-proliferative effect of the monomeric spacers was determined in vitro applying seven well-characterised human tumor cell lines and the microculture sulphorhodamine B (SRB) test. The anti-proliferative effects were determined and expressed as ID50 values (ng/mL), which are the (pro)drug concentrations that gave 50% inhibition of cell growth when compared to control cell growth after 5 days of incubation.

[3] = system: EVSA-T; breast cancer; assay: SRB anti-proliferative test, EVSA-T; type: cell-based, human; settings: 5 days of incubation
Protocol: as §2

[4] = system: WIDR; colon cancer; assay: SRB anti-proliferative test, WIDR; type: cell-based, human; settings: 5 days of incubation
Protocol: as §2

[5] = system: IGROV; ovarian cancer; assay: SRB anti-proliferative test, IGROV; type: cell-based, human; settings: 5 days of incubation
Protocol: as §2

[6] = system: M19; melanoma; assay: SRB anti-proliferative test, M19; type: cell-based, human; settings: 5 days of incubation
Protocol: as §2

[7] = system: A498; renal cancer; assay: SRB anti-proliferative test, A498; type: cell-based, human; settings: 5 days of incubation
Protocol: as §2

[8] = system: H226; non-small cell lung cancer; assay: SRB anti-proliferative test, H226; type: cell-based, human; settings: 5 days of incubation
Protocol: as §2

[9] = system: seven well-characterised human tumor cell lines; assay: Cytotoxicity in a panel of seven human tumor cell lines; type: cell-based
Text: Upon removal or transformation of the specifier V in the compounds or prodrugs disclosed in this invention, thus upon unmasking of B of the branched spacer or spacer system coupled to V, under physiological conditions, the reactive intemiediate(s) formed after self-elimination is (are) likely to be trapped by water, thereby regenerating molecules like aminodiol 23 and/or aminotriol 16. When a multiple release conjugate or prodrug constructed with one of the monomers disclosed in this invention is used for drug delivery purposes, the degradation products of the prodrug or (bio)conjugate after the multiple self-elimination cascade must be non-toxic (except from drugs to be released in tumor targeting approaches). Therefore, we have tested the aminotriol monomer 16 and aminodiol monomer 23 for their cytotoxicity in a panel of seven weul-characterized human tumor cell lines. Both compounds turned out to be non-toxic (see example 33).
Cytoxicity of multiple release spacers 16 and 23. The anti-proliferative effect of the monomeric spacers was determined in vitro applying seven well-characterised human tumor cell lines and the microculture sulphorhodamine B (SRB) test. […]

[10] = Release of leaving groups upon reduction of the nitro group with zinc and acetic acid (TLC, 1H-NMR); type: physicochemical
Protocol: (§3) Proof of principle for triple elimination. Formation of benzyl alcohol upon reduction of 13 (see FIG. 19). Compound 13 was dissolved in 3 mL of MeOH/AcOH/THF (1.5/0.5/1). Zinc powder was added and the reaction mixture was stirred at Rt. […] The mixture was filtered over hyflo and the residue was washed with MeOH/dichloromethane.
as §3, with “phenethyl” for “benzyl”, “14” for “13”, “3.75” for “3”, “(2/0.75/1).” for “(1.5/0.5/1).”
Reduction of the nitro group in 15. Failure of elimination of benzylamine (see FIG. 20). Compound 15 (16 mg) was dissolved in 10 mL of MeOH/AcOH (8/2). Zinc powder was added and the reaction mixture was stirred at Rt. […] The mixture was filtered over hyflo and the residue was washed with MeOH/dichloromethane. The filtrate was concentrated in vacuo, the mixture was freeze-dried. Under a number of varied circumstances (different deuterated solvent combinations, different pH (acidic, neutral, and basic), different buffers), ^1H-NMR did hardly show formation of free benzylamine. After 2 days, maximally 33 percent of free benzylamine was observed (^1H-NMR).
Proof of principle for double elimination. Formation of paclitaxel upon reduction of 22 (see FIG. 22). Nitrocinnamyl biscarbonate 22 was dissolved in 3.5 mL of MeOH/AcOH/THF (2/0.5/1). Zinc powder was added and the reaction mixture was stirred at Rt. […] The mixture was filtered over hyflo and the residue was washed with MeOH/dichloromethane. The filtrate was concentrated in vacuo, dioxane was added and the resulting solution was freeze-dried.
Proof of principle for quadruple elimination. Formation of paclitaxel upon reduction of 26 (see FIG. 23). Compound 26 was dissolved in 3.25 mL MeOH/AcOH/TF (1.5/0.75/1). Zinc powder was added and the reaction mixture was stirred. […] After 16 h, the mixture was filtered over hyflo and the residue was washed with MeOH/dichloromethane. […]

[11] = zinc powder, MeOH/AcOH(/THF), Rt

With “2′-O-cinnamyloxycarbonylpaclitaxel [Compound 36]” the “stability on treatment with zinc and acetic acid (TLC, 1H-NMR)” value [1] was “did not show any degradation; also recorded: no formation of new compounds”.
For `Nc1ccc(C=C(CO)CO)cc1` [Compound 23], the ID50 [2] was over 0.0625 µg/mL, the ID50 [3] was over 0.0625 µg/mL and the ID50 [4] was over 0.0625 µg/mL. For the same compound, the ID50 [5] was over 0.0625 µg/mL, the ID50 [6] was over 0.0625 µg/mL and the ID50 [7] was 0.056784 µg/mL (≈ 0.317 µM). The ID50 [8] was 0.042406 µg/mL (≈ 0.237 µM) and the cytotoxicity [9] was “non-toxic”.
With `O=C(NCc1ccccc1)OCc1ccc([N+](=O)[O-])cc1` [Compound 34] the “release of leaving groups by 1H-NMR” value ([10]; after reduction with zinc/acetic acid) was “complete release of free benzylamine”, the “formation of free leaving group by thin layer chromatography” value [10, 11] was “formation of a substantial amount of benzylamine” and the “time to disappearance of starting compound (thin layer chromatography)” value [10, 11] was 100 min.
With `O=C(OCc1ccccc1)OCc1ccccc1` [Compound 35, Dibenzyl carbonate] the “stability on treatment with zinc and acetic acid (TLC, 1H-NMR)” value [1] was “did not show any degradation; also recorded: no formation of new compounds”.
